Data: patent US6949522B2, “β-2′- or 3′-halonucleosides” (Pharmasset, Inc., priority 2001, dated 2005)
Like-named read-outs stand apart in the source and are kept apart here.

Key:
[1] = system: 3TC-resistant (xxBRU 184V) HIV-1; assay: HIV-1 Q-RT-PCR assay in human PBM cells, strain xxBRU 184V; type: cell-based; details: for EC90: read-out: Q-RT-PCR HIV-1 assay 184V EC90
Method: (§1) Human PBM cells (1×10^6 cells/T25 flask) were PHA stimulated for 2 or 3 days, and infected with either a wild type (LAI and xxBRU) or a 3TC-resistant (xxBRU 184V) HIV-1 strain at 100 TCID50, as previously described (27). The culture was kept for 5 days in presence of test compounds at serial 1-log dilutions. Subsequently, human PBM cells were removed from the culture supernatant by centrifugation (10 minutes, 400×g, 4° C.). This clarified supernatant was tested either in the RT-assay, or in the Q-RT-PCR assay.
(§2) Viral RNA present in the culture supernatant was prepared using commercially available columns (QIAamp Viral RNA mini Kit, Qiagen, Valencia, Calif.). Viral RNA was detected in real-time by monitoring increases in fluorescence signal that resulted from degradation of a quenched fluorescent probe molecule following the hybridization of the probe to the arnplified viral DNA (TaqMan 7700 chemistry, Applied Biosystems, Foster City, Calif.). The TaqMan probe and primers were designed using the Primer Express software (Applied Biosystems); they cover highly conserved sequences complementary to an 81 base pair long fragment from the HIV-1 RT gene between codon 230 and 257 of the group MHIV-1 genome; • probe 5′-6FAM-[…]-TAMRA-3′ (Sequence 1) • sense primer: 5′-[…]-3′ (Sequence 2); and • antisense primer 5′-[…]-3′ (Sequence 3).
(§3) A total of 5 μL RNA was RT-amplified using reagents and conditions as described by the manufacturer (Applied Biosystems). […] Copy numbers were calibrated using the Roche Amplicor HIV-1 Monitor test™ (Roche Diagnostics, Branchburg, N.J.) on a 1-log dilution series of a clinical HIV-1 genotype B isolate (attenuated in vitro to obtain a high viral load). The 10-6 diluted sample became positive at threshold cycle (Ct=PCR cycle threshold where a sample becomes detectable)=35.52, which corresponded to 1,410 copies/mL in the Roche monitor HIV-1 version II assay. When validated over a dynamic range of 3 logs of virus, there was excellent correlation (r2˜1) between the two methodologies. […] Therefore, the currently designed primer and probe set allowed reliable quantification of both clinical samples and HIV-1 in vitro preparations.
(§4) HIV-1 present in culture supernatant fluids was quantified by two different methodologies: i) the Q-RT-PCR with read-out in log copies/mL; and ii) the endogenous viral RT assay on cell supernatant with read-out in log counts per minute/mL (CPM/mL). Upon addition of antiviral compounds to the culture media, a dose-related decrease in virus production was observed. Although the two methodologies measured different parameters (viral RNA versus active RT enzyme), results were not markedly different from each other. The HIV-1 Q-RT-PCR results were compared with a previously established cell-based antiviral drug evaluation assay (endogenous HIV-1 RT polymerization activity in cell supematant)(27).

BVDV (strain NADL) = assay: BVDV Q-RT-PCR assay in MDBK cells; type: cell-based, bovine viral diarrhea virus; details: read-out: BVDV assay Q-PCR EC90
Method: Madin-Darby Bovine Kidney (MDBK) cells were maintained in DMEM/F12 supplemented with 10% heat-inactivated horse serum at 37° C. in a humidified, 5% CO2 atmosphere. Cells were seeded in 96-well plates at 5×10^3 cells/wcll and incubated for 1 hour. BVDV (strain NADL) was used to infect the cells in monolayer at MOI 0.02. After 45 minutes of infection, the viral inoculum was removed and the cells were washed twice. Media or media containing test compound was added to these cells, followed by 24 hour incubation. Cell supernatant fluids were collected, clarified by centrifugation (2 minutes, 3,000 g, room temperature) and viral RNA was prepared (QIAamp Viral RNA mini Kit, Qiagen). Viral RNA was detected in real-time RT-PCR.

HIV-1 xxBRU (wild type) = assay: HIV-1 Q-RT-PCR assay in human PBM cells, strain xxBRU; type: cell-based; details: 5 days, viral RNA reduced by 90%
Method: as §1, §2, §3, §4

HBV = HBV Q-PCR assay in HepAD38 (AD38) cells; type: cell-based, hepatitis B virus; details: for EC90: read-out: HBV assay Q-PCR EC90
Method: The HepAD38 cell line replicates HBV under conditions that can be regulated with tetracycline (12, 15). In the presence of this drug, the cell supernatant is virtually free of viral DNA, but upon the removal of tetracycline from the culture medium, these cells secrete virus-like particle into the supernatant (12). HepAD38 cells were seeded at 5×10^4 cells/well in a 96-well plate in seeding medium (DMEM/F12+10% FBS, 50 μg/mL penicillin, 50 μg/mL streptomycin, 100 μg/mL kanamycin, 400 μg/mL G418, and 0.3 μg/mL tetracycline) and incubated for 2 days at 37° C. in a 5% CO2 humid atmosphere. The seeding media was removed, and cells were washed 3 times with PBS. Cells were then incubated with 200 μL assay medium (DMEM/F12+10% FBS+P/S/K) containing either no compound, test compound, or control drugs at 10 μM. After a 5-day incubation, the cell supernatant was collected and stored at −70° C. until HBV DNA was quantified. HBV DNA was extracted from supernatant using QiaAmp DNA blood Mini kit (Qiagen) and nucleic acids eluted in 200 μL. Viral DNA was detected in Q-PCR. The TaqMan probe and primers were designed using the Primer Express software (Applied Biosystems) and cover highly conserved sequences complementary to the DNA sequences present in HBsAg (24). A total of 5 μL DNA was amplified using reagents and conditions as described by the manufacturer (Applied Biosystems). […]

[2] = Human immunodeficiency virus 1, PBMC, 120 h
[3] = Bovine viral diarrhea virus isolates and strains, MDBK cells, 24 hour incubation, viral RNA in supernatant
[4] = AD38 cells, 5-day incubation, HBV DNA in supernatant
[5] = human PBM cells, 5 days, viral RNA reduced by 90%
[6] = MDBK cells, 24 hour incubation, viral RNA in supernatant

Compound | EC90 [1, 2] | EC90 (BVDV (strain NADL); [3]) | EC90 (HIV-1 xxBRU (wild type); [2]) | Q-RT-PCR HIV-1 assay FI, fold increase (EC90 HIV-1184V/EC90 HIV-1xxBRU) [1] | reduction of release of HBV DNA in the supernatant (HBV; 10 μM, 5 days, HepAD38 cells) | EC90 (HBV; [4]) | EC90 (HBV; Hepatitis B virus, HePAD38, 120 h, AD38 cells, 5-day incubation, HBV DNA in supernatant) | EC90 (BVDV (strain NADL); Bovine viral diarrhea virus isolates and strains, MDBK, 24 h) | EC90 (HBV; Hepatitis B virus, HePAD38, 120 h) | EC90 [1, 5] | EC90 (BVDV (strain NADL); [6]) | EC90 (HIV-1 xxBRU (wild type))
Cc1cn([C@H]2C[C@H](N=[N+]=[N-])[C@@H](CO)O2)c(=O)[nH]c1=O [AZT, 3′-azido-3′-deoxythymidine, reference compound] | 0.01 µM | > 200 µM | 0.01 µM |  |  |  |  |  |  |  |  | 
Nc1ccn([C@@H]2CS[C@H](CO)O2)c(=O)n1 [Compound 3TC, (−)-β-2′,3′-dideoxy-3′-thiacytidine, reference compound] | > 100 µM | > 200 µM | 0.06 µM | >1,562 | ~1.5 log | 3 µM | 2.9 µM |  |  |  |  | 
Nc1ccn([C@@H]2C=C(F)[C@H](CO)O2)c(=O)n1 [Compound 10, 1-(2,3-Dideoxy-3-fluoro-β-L-glycero-pent-2-eno-furanosyl)cytosine] | > 100 µM |  | 35.4 µM |  |  |  |  | > 200 µM | ≥ 100 µM |  |  | 
Nc1ccn([C@@H]2C=C(F)[C@H](CO)O2)c(=O)n1 [Compound 23, 1-(2,3-Didcoxy-3-fluoro-β-L-glycero-pent-2-eno-furanosyl)cytosine] |  |  |  | 115 |  | 1 µM |  |  |  | 68.4 µM | > 200 µM | 0.6 µM
Nc1ccn([C@@H]2S[C@H](CO)C=C2F)c(=O)n1 [Compound D-17, (−)-1-[(1S,4R)-2,3-dideoxy-2,3-didehydro-2-fluoro4-thio-β-D-ribofuranosyl]-cytosine] |  |  |  | 12.8 |  | > 100 µM |  |  |  | 65.8 µM | > 200 µM | 5.2 µM
Nc1nc(=O)n([C@@H]2S[C@H](CO)C=C2F)cc1F [Compound D-18, (−)-1-[(1S,4R)-2,3-dideoxy-2,3-didehydro-2-fluoro-4-thio-β-D-ribofuranosyl]-5-fluorocytosine] |  |  |  |  |  | > 100 µM |  |  |  | > 100 µM | > 200 µM | 73.9 µM
Nc1ccn([C@H]2S[C@@H](CO)C=C2F)c(=O)n1 [Compound L-17, (+)-1-[(1S,4R)-2,3-dideoxy-2,3-didehydro-2-fluoro-4-thio-β-L-ribofuranosyl]-cytosine] |  |  |  | >50 |  | > 100 µM |  |  |  | > 100 µM | > 200 µM | 2.1 µM
Nc1nc(=O)n([C@H]2S[C@@H](CO)C=C2F)cc1F [Compound L-18, (+)-1-[(1S,4R)-2,3-dideoxy-2,3-didehydro-2-fluoro-4-thio-β-L-ribofuranosyl]-5-fluoro-cytosine] |  |  |  | >100 |  | > 100 µM |  |  |  | > 100 µM | > 200 µM | 0.94 µM
